From patent US20190048016A1, “SUBSTITUTED BRIDGED UREA ANALOGS AS SIRTUIN MODULATORS” (GlaxoSmithKline Intellectual Property(No.2)Limited, priority 2014, published 2019) come the findings set out here.

The test addresses T1, SIRT1 (Homo sapiens, UniProt Q96EB6).
T1 sequence (Q96EB6 1-747): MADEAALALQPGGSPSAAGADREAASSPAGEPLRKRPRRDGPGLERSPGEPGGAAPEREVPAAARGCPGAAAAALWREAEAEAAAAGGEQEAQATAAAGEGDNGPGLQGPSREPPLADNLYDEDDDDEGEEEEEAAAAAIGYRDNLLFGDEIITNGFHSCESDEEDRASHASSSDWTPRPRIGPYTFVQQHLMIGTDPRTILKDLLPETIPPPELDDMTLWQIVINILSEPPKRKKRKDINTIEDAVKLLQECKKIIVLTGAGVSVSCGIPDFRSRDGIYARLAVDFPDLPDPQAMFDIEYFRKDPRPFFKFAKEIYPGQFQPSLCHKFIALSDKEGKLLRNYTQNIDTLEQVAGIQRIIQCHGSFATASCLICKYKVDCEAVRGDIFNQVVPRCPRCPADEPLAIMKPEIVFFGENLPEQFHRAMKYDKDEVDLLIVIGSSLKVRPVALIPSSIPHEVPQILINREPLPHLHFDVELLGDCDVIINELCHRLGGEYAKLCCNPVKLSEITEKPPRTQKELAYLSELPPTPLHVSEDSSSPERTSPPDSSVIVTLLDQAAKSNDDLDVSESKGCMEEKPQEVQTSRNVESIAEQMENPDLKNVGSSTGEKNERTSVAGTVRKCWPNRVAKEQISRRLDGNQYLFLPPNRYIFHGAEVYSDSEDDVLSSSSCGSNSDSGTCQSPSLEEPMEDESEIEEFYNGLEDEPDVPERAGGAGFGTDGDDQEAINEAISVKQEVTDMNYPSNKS
Description: Trp mass spectrometry assay of SIRT1 activation (deacetylation of Ac-R-H-K-K(Ac)-W-NH2 peptide, OAADPR formation). The class given is biochemical. Conditions: Trp peptide 0.5 μM, 120 μM βNAD+, 10 nM SIRT1, 25 min, 25° C.; for Emax: 25 min, read-out: TRP MAX RESP (percent maximum fold activation relative to control = 100%). From the text: Mass spectrometry based assays were used to identify modulators of SIRT1 activity. The TAMRA based assay utilized a peptide having 20 amino acid residues as follows: Ac-EE-K(biotin)-[…](Ac)NleSTEG-K(5TMR)-EE-NH2 (SEQ ID NO: 1), wherein K(Ac) is an acetylated lysine residue and Nle is a norleucine. The peptide was labeled with the fluorophore 5TMR (excitation 540 nm/emission 580 nm) at the C-terminus. The sequence of the peptide substrate was based on p53 with several modifications. In addition, the methionine residue naturally present in the sequence was replaced with the norleucine because the methionine may be susceptible to oxidation during synthesis and purification. The Trp based assay utilized a peptide having an amino acid residues as follows: Ac-R-H-K-K(Ac)-W-NH2 (SEQ ID NO: 2).
The Trp mass spectrometry assay was conducted as follows. 0.5 μM peptide substrate and 120 μM βNAD^+ were incubated with 10 nM SIRT1 for 25 minutes at 25° C. in a reaction buffer (50 mM HEPES pH 7.5, […], 1 mM DTT, 0.05% BSA). The SIRT1 protein was obtained by cloning the SirT1 gene into a T7-promoter containing vector, which was then expressed in BL21(DE3) bacterial cells and purified as described in further detail below. Test compound was added at varying concentrations to this reaction mixture and the resulting reactions were monitored. After the 25 minute incubation with SIRT1, 10 μL of 10% formic acid was added to stop the reaction. The resulting reactions were sealed and frozen for later mass spec analysis. The relative SIRT1 activity was then determined by measuring the amount of O-acetyl-ADP-ribose (OAADPR) formed (or, alternatively, the amount of deacetylated Trp peptide generated) by the NAD-dependent sirtuin deacetylation reaction in the presence of varying concentrations of the test compound versus control reactions lacking the test compound. The degree to which the test agent activated deacetylation by SIRT1 was expressed as EC1.5 (i.e., the concentration of compound required to increase SIRT1 activity by 50% over the control lacking test compound), and Percent Maximum Activation (i.e., the maximum activity relative to control (100%) obtained for the test compound).
A control for inhibition of sirtuin activity was conducted by adding 1 μL of 500 mM nicotinamide as a negative control at the start of the reaction (e.g., permits determination of maximum sirtuin inhibition). A control for activation of sirtuin activity was conducted using 10 nM of sirtuin protein, with 1 μL of DMSO in place of compound, to determine the amount of deacetylation of the substrate at a given time point within the linear range of the assay. This time point was the same as that used for test compounds and, within the linear range, the endpoint represents a change in velocity.
For the above assay, SIRT1 protein was expressed and purified as follows. The SirT1 gene was cloned into a T7-promoter containing vector and transformed into BL21(DE3). The protein was expressed by induction with 1 mM IPTG as an N-terminal His-tag fusion protein at 18° C. overnight and harvested at 30,000×g. Cells were lysed with lysozyme in lysis buffer (50 mM Tris-HCl, 2 mM Tris[2-carboxyethyl] phosphine (TCEP), 10 μM ZnCl2, 200 mM NaCl) and further treated with sonication for 10 min for complete lysis. The protein was purified over a Ni-NTA column (Amersham) and fractions containing pure protein were pooled, concentrated and run over a sizing column (Sephadex S200 26/60 global). The peak containing soluble protein was collected and run on an Ion-exchange column (MonoQ). Gradient elution (200 mM-500 mM NaCl) yielded pure protein. This protein was concentrated and dialyzed against dialysis buffer (20 mM Tris-HCl, 2 mM TCEP) overnight. The protein was aliquoted and frozen at −80° C. until further use.
Sirtuin-modulating compounds of Formula (I) that activated SIRT1 were identified using the assay described above and are shown below in Table 1. […]

`O=C(Nc1ncc(OC[C@H](O)CO)cn1)N1c2nc(-c3cccc(C(F)(F)F)c3)c(Cl)cc2N2CCC[C@H]1C2` [Example 89, (9S)-3-chloro-N-(5-((R)-2,3-dihydroxypropoxy)pyrimidin-2-yl)-2-(3-(trifluoromethyl)phenyl)-8,9-dihydro-6H-5,9-methanopyrido[2,3-b][1,4]diazocine-10(7H)-carboxamide]: the Emax is not below 150% and the “TRP Activity (EC1.5, concentration of compound required to increase SIRT1 activity by 50% over control)” value is reported as “A (EC1.5<1 μM)”.
As to `C[C@@H](NC(=O)c1ccc2c(n1)N(C(=O)Nc1cc(OC[C@H](O)CO)ccn1)[C@H]1CCCN2C1)C(F)(F)F` [Example 34, (9S)-N10-(4-((R)-2,3-dihydroxypropoxy)pyridin-2-yl)-N2-((R)-1,1,1-trifluoropropan-2-yl)-8,9-dihydro-6H-5,9-methanopyrido[2,3-b][1,4]diazocine-2,10(7H)-dicarboxamide], the Emax is not below 150% and the “TRP Activity (EC1.5, concentration of compound required to increase SIRT1 activity by 50% over control)” value is “A (EC1.5<1 μM)”.
For the compound `O=C(Nc1ccccn1)N1c2nc(-c3cccc(C(F)(F)F)c3)c(Cl)cc2N2CCC[C@H]1C2` [Example 63, (9S)-3-chloro-N-(pyridin-2-yl)-2-(3-(trifluoromethyl)phenyl)-8,9-dihydro-6H-5,9-methanopyrido[2,3-b][1,4]diazocine-10(7H)-carboxamide], the Emax was not below 150% and the “TRP Activity (EC1.5, concentration of compound required to increase SIRT1 activity by 50% over control)” value is recorded as “A (EC1.5<1 μM)”.
Regarding `O=C(Nc1ccccn1)N1c2nc(N3CCCC(C(F)(F)F)C3)ccc2N2CCC[C@H]1C2` (single isomer, unassigned) [Example 11], the Emax was not below 150% and the “TRP Activity (EC1.5, concentration of compound required to increase SIRT1 activity by 50% over control)” value is recorded as “A (EC1.5<1 μM)”.
As to `O=C(Nc1ccccn1)N1c2nc(N3CCCC(C(F)(F)F)C3)ccc2N2CCC[C@H]1C2` (single isomer, unassigned) [Example 23], the “TRP Activity (EC1.5, concentration of compound required to increase SIRT1 activity by 50% over control)” value is “B (EC1.5 1-25 μM)” and the “TRP MAX RESP (percent maximum fold activation relative to control = 100%)” value was “A (Fold activation≥150%)”.
On to `O=C(Nc1ncccn1)N1c2nc(N3CCCC(C(F)(F)F)C3)ccc2N2CCC[C@H]1C2` (single isomer, unassigned) [Example 22], for which the “TRP Activity (EC1.5, concentration of compound required to increase SIRT1 activity by 50% over control)” value is listed as “A (EC1.5<1 μM)”.
For the compound `C[C@@H](NC(=O)c1ccc2c(n1)N(C(=O)Nc1ccc(OC[C@H](O)CO)nn1)[C@H]1CCCN2C1)C(F)(F)F` [Example 55, (9S)-N10-(6-((R)-2,3-dihydroxypropoxy)pyridazin-3-yl)-N2-((R)-1,1,1-trifluoropropan-2-yl)-8,9-dihydro-6H-5,9-methanopyrido[2,3-b][1,4]diazocine-2,10(7H)-dicarboxamide], the Emax was not below 150%.
Turning to `Cc1cc(-c2ccc3c(n2)N(C(=O)Nc2cccnn2)[C@H]2CCCN3C2)ccn1` [Example 14, (9S)-2-(2-methylpyridin-4-yl)-N-(pyridazin-3-yl)-8,9-dihydro-6H-5,9-methanopyrido[2,3-b][1,4]diazocine-10(7H)-carboxamide], the Emax was not below 150% and the “TRP Activity (EC1.5, concentration of compound required to increase SIRT1 activity by 50% over control)” value is recorded as “A (EC1.5<1 μM)”.
In the case of `O=C(Nc1nccc(OC[C@@H](O)CO)n1)N1c2nc(-c3cccc(C(F)(F)F)c3)c(Cl)cc2N2CCC[C@H]1C2` [Example 75], the Emax is not below 150% and the “TRP Activity (EC1.5, concentration of compound required to increase SIRT1 activity by 50% over control)” value is listed as “A (EC1.5<1 μM)”.
For the compound `O=C(Nc1cccnc1)c1cc2c(nc1N1CCCC(C(F)(F)F)C1)N[C@H]1CCCN2C1` (single isomer, unassigned) [Example 60], the Emax was not above 150%.
Regarding `O=C(Nc1cc(OC[C@@H](O)CO)ncn1)N1c2nc(-c3cccc(C(F)(F)F)c3)c(Cl)cc2N2CCC[C@H]1C2` [Example 86], the Emax is not below 150% and the “TRP Activity (EC1.5, concentration of compound required to increase SIRT1 activity by 50% over control)” value is recorded as “A (EC1.5<1 μM)”.
Take `Cc1cc(-c2nc3c(cc2Cl)N2CCC[C@@H](C2)N3C(=O)Nc2cccnc2)ccn1` [Example 66, (9S)-3-chloro-2-(2-methylpyridin-4-yl)-N-(pyridin-3-yl)-8,9-dihydro-6H-5,9-methanopyrido[2,3-b][1,4]diazocine-10(7H)-carboxamide]: the Emax is not below 150%.
Take `O=C(Nc1cnccn1)N1c2nc(-c3ccnc(C(F)(F)F)c3)ccc2N2CCC[C@H]1C2` [Example 17, (9S)-N-(pyrazin-2-yl)-2-(2-(trifluoromethyl)pyridin-4-yl)-8,9-dihydro-6H-5,9-methanopyrido[2,3-b][1,4]diazocine-10(7H)-carboxamide]: the Emax is not below 150% and the “TRP Activity (EC1.5, concentration of compound required to increase SIRT1 activity by 50% over control)” value is reported as “A (EC1.5<1 μM)”.
`O=C(Nc1ccnc(OC[C@@H](O)CO)c1)N1c2nc(-c3cccc(C(F)(F)F)c3)c(Cl)cc2N2CCC[C@H]1C2` [Example 83, (9S)-3-chloro-N-(2-((S)-2,3-dihydroxypropoxy)pyridin-4-yl)-2-(3-(trifluoromethyl)phenyl)-8,9-dihydro-6H-5,9-methanopyrido[2,3-b][1,4]diazocine-10(7H)-carboxamide]: the Emax is not below 150% and the “TRP Activity (EC1.5, concentration of compound required to increase SIRT1 activity by 50% over control)” value was “A (EC1.5<1 μM)”.
Take `O=C(NCC(F)(F)F)c1ccc2c(n1)N(C(=O)Nc1ccccn1)[C@H]1CCCN2C1` [Example 37, (9S)-N10-(pyridin-2-yl)-N2-(2,2,2-trifluoroethyl)-8,9-dihydro-6H-5,9-methanopyrido[2,3-b][1,4]diazocine-2,10(7H)-dicarboxamide]: the Emax is not below 150% and the “TRP Activity (EC1.5, concentration of compound required to increase SIRT1 activity by 50% over control)” value is recorded as “A (EC1.5<1 μM)”.
In the case of `Cc1cc2c(nc1-c1cccc(C(F)(F)F)c1)N(C(=O)Nc1cc(OC[C@H](O)CO)ccn1)[C@H]1CCCN2C1` [Example 91, (9S)-N-(4-((R)-2,3-dihydroxypropoxy)pyridin-2-yl)-3-methyl-2-(3-(trifluoromethyl)phenyl)-8,9-dihydro-6H-5,9-methanopyrido[2,3-b][1,4]diazocine-10(7H)-carboxamide], the Emax is not below 150% and the “TRP Activity (EC1.5, concentration of compound required to increase SIRT1 activity by 50% over control)” value is “A (EC1.5<1 μM)”.
